In US20210353612A1, “HYPOXIA-INDUCIBLE FACTOR PROLYL HYDROXYLASE INHIBITORS FOR TREATING AGING-RELATED CONDITIONS” (BioAge Labs, Inc., priority 2020, published 2021):
Entries after “also recorded” stand apart in the source; their conditions may differ.

Legend:
[1] = tested on: patients over 65 years of age with UAA; assay: Phase 2a, 12-week, randomized, double-blind, placebo-controlled study in Unexplained Anemia of Aging (UAA); type: in vivo, human; settings: elderly UAA subjects; 4-24 mg once daily, 12 weeks
From the text: Study Title: A Phase 2a, 12-Week, Randomized, Double-Blind, Placebo-Controlled, Multi-Center Study to Evaluate Efficacy and Safety of BGE-117 in the Treatment of Unexplained Anemia of Aging (UAA)
This is a Phase II, randomized, double-blind, placebo-controlled multi-center study to compare the safety of BGE-117 when administered in patients over 65 years of age for 12 weeks. The study consists of 3 periods: Screening, Treatment, and Follow-up. FIG. 16 provides a summary of the study design.
The study size for this study is 160 evaluable subjects (80 subjects randomized to BGE-117 and 80 subjects randomized to placebo). The subject's maximum duration of participation is approximately 154 days. This includes 6 weeks for the Screening Period, 12 weeks for the Treatment Period, and 4 weeks for the Follow-up Period.
Subjects are advised to take IP with water once a day, recommended that the subject take the study medication 1 hour before their morning meal, starting on Visit 3 (Day 1), for 84 consecutive days, through Visit 15 (Day 85). Capsules are taken whole, not crushed, chewed, or cut.
This study is a double-blind, placebo-controlled study. Subjects are randomized to receive either of the following: • BGE-117: a hypoxia inducible factor-prolyl hydroxylase (HIF-PHD) inhibitor in 4 mg and 12 mg capsules; or • Placebo: matching capsule without active drug • The starting dose and maximum dose for BGE-117/placebo is based on a subject's screening renal function results: • The starting dose for subjects with an estimated glomerular filtration rate (eGFR) ≥60 mL/min/1.73 m2 is 12 mg/placebo. The maximum dose is 24 mg/placebo. • The starting dose for subjects with an eGFR between ≥30 and <60 mL/min/1.73 m^2is 4 mg/placebo. The maximum dose is 16 mg/placebo.
From Visits 5 through 11 (Days 15 through 57), dose adjustment opportunities are scheduled approximately every 14 days to achieve and maintain Hb within the target range. Dose adjustments are based on the local laboratory's results, with the goal of titrating Hb levels to a range of ≥12.0 to ≤13.0 g/dL. In the event of excessively rapid Hb increases or unacceptably high Hb levels or trends, in the investigator's opinion, the dose may be adjusted at any time, even on visits without a dose adjustment review.
• Improvement in Hb at Visit 15 (Day 85/EOTP) compared to baseline
• Improvement in FACIT-Fatigue Score at Visit 15 (Day 85/EOTP) compared to baseline
• Change in Hb at Visits 7, and 11 (Days 29, and 57) and Follow-up Visit compared to baseline • Improvement in FACIT-Fatigue score at Visits 7 and 11 (Day 29 and 57) and the Follow-up Visit compared to baseline • Change in SPPB Score at Visits 7, 11, and 15 (Day 29, 57, and 85), and Follow-up Visit compared to baseline • Change in 6MWT Distance at Visits 7, 11, and 15 (Days 29, 57, and 85) and the Follow-up Visit compared to baseline • Change in SF-36 at Visits 7, 11, and 15 (Days 29, 57, and 85) and the Follow-up Visit compared to baseline • Evaluate the starting dose of BGE-117 in the treatment of UAA for subjects with eGFR ≥60 mL/min/1.73 m^2 and subjects with eGFR ≥30 and <60 mL/min/1.73 m^2
Change in Hb is the primary endpoint and is a direct assessment of the disease of unexplained anemia in aging patients. Changes in FACIT-Fatigue is the key secondary endpoint. Analysis of both of these endpoints is an ANCOVA with baseline covariates. Testing for FACIT-Fatigue is done only after achieving statistical significance for the change in Hb.

5/6 nephrectomized rats = 5/6 nephrectomized rats (Kato et al. 2019); cited from earlier work
aged C57BL/6 mice = assay: Hemoglobin levels in aged mice (Hb assay kit ab234046); type: in vivo, mouse; settings: for Hemoglobin concentration vs vehicle control (FIG. 4B): after 14 days of treatment; for Hemoglobin levels in aged mice, Mean: 27-month-old mice
Procedure: (§1) In this study, aged mice were treated with BGE-117 daily for 35 days. Daily voluntary running wheel activity levels, as well as hemoglobin levels at Days 0 and 14, were measured. The effects of the BGE-117 compound were examined for the reversal of frailty in mice.
The BGE-117 compound for the TA-1 treatment group was formulated in 0.5% carboxymethylcellulose (CMC) and 0.5% Tween 80 and constituted at a concentration of 1 mg/ml. The test article for the Control group included 0.5% CMC and 0.5% Tween 80, acting as a vehicle control. Mice were treated with BGE-117 at a concentration of 1 mg/ml at a volume of 300 μl/mouse (0.3 ml/mouse), for 0.3 mg/dose (TA-1); control group mice (TA-2) were administered a vehicle control at a dose volume of 0.3 ml/mouse. Administration was oral, once per day.
Using a 4 mm lancet, approximately 150 microliters of whole blood was collected from the submental vein, utilizing the submandibular vein as back-up. Blood was collected using 500 microliter Serum Separator tubes and stored at room temperature for 45 minutes or until clotted. Blood was centrifuged at 4000 RPM for 10 minutes in at 4° C. If the serum was not analyzed immediately, the serum was apportioned into 0.5 ml aliquots, stored, and transported at −80° C.
The following procedure was performed for the hemoglobin assay: • 1. Mouse blood was collected in Li-heparin tubes. • 2. Blood was briefly vortexed and 2 μl of whole blood was transferred into a 96-well clear plate containing 18 μl of distilled water. • 3. 160 μl sample buffer was added to the 96-well clear plate from the Hemoglobin Assay Kit (ab234046). • 4. 20 μl 1N NaOH was added to blood samples to the diluted sample in each well. • 5. The standard curve was established with included hemoglobin standard (ab234046) as per the manufacturer's instruction. • 6. The reaction was incubated at room temperature for 8-15 minutes. Read absorbance at 575 nm in end point mode. • 7. Hb concentration was calculated as recommended by the assay kit.

[2] = tested on: 27-month-old C57BL/6 mice; assay: Activity monitoring wheel test (voluntary running wheel activity) in aged mice; type: in vivo, mouse; settings: 27-month-old mice; 0.3 mg/dose PO once daily for 35 days
Procedure: as §1
The animals were housed with access to voluntary running wheels that wirelessly transmit running data to a computer for analysis. The outcome of interest was the median number of daily wheel rotations generated by mice in each group (n=9 per group), and this is shown as the dots in FIG. 6 (one median number of rotations per day per group) and also as the numbers on the right. […]
The first day of the study (Study Day 1) started with Animal Acclimation, followed by the BGE-117 treatment start date on Study Day 33 (Phase Day 1). […] For the frailty portion of the study, mice were assessed using an activity monitoring wheel which was monitored passively with a computer monitoring system. […]
The activity monitoring wheel is a running disk that monitors rotations. […] Activity was monitored passively and wirelessly with a computer monitoring system. Running wheel activity levels were monitored daily. […]
The wheels were electronically monitored and the number of rotations of the wheel per minute was recorded continuously throughout the entire study.

[3] = tested on: 23-month-old and 27-month old C57BL/6 mice with anemia of inflammation; assay: Hemoglobin in aged mice with anemia of inflammation (elevated TNFα and/or IL-6), BGE-117 study; type: in vivo, mouse; settings: 10 mg/kg PO once daily
Procedure: The study included 23-month-old mice (n=39) (23-months old at the start of the experiment, and 24 months old at the end since the experiment lasted 35 days) and 27-month old mice (n=14) (27-months old at the start of the experiment, and 28 months old at the end since the experiment lasted 35 days) from strain C57BL/6 that were administered BGE-117 or vehicle once daily for a duration of […].
Once the 23 month old mice developed anemia of inflammation at 23-months (±2 weeks), mice were randomly divided into two groups: Anemia of inflammation vehicle-treated Control group 1 (“23-month Control Group” (CG1)) (n=18) and Anemia of inflammation BGE-117-treated group (“BGE-117 23-month Test Group” (BGE-117 TG1)) (n=21), while ensuring that the mean hemoglobin levels and inflammatory cytokine levels remained balanced among the groups.
Once the 27-month old mice developed anemia of inflammation at 27-months (±2 weeks), mice were randomly divided into two groups: Anemia of inflammation vehicle-treated Control group (“27-month Control Group” (CG2)) (n=8), Anemia of inflammation BGE-117-treated group (“BGE-117 27-month Test Group” (BGE-117 TG2)) (n=6), while ensuring that the mean hemoglobin levels remained balanced among the groups. The mice in the two “Anemia of inflammation” pre-treatment (baseline) groups had high (130% or higher of the median values) TNFα and/or IL-6 as indicated in FIGS. 11-12.
The 23-month old and 27-month old Test Groups BGE-117 TG1 and BGE-117 TG2 were administered 10 mg/kg of BGE-117 once daily for 5 weeks by oral gavage in 0.5% carboxymethylcellulose (CMC) and 0.5% Tween 80. The 23-month old and 27-month old Control Groups CG1 and CG2 were administered vehicle of 0.5% carboxymethylcellulose (CMC) and 0.5% Tween 80 by oral gavage on the same schedule.
Blood was collected from the submandibular vein at the start of the study immediately before drug administration, and after 14 days of drug administration. The blood samples was mixed with EDTA and analyzed using the Hemoglobin assay kit from Abcam (ab234046) with modification. The signal was read on Molecular Device SpectraMax 340PC-384. The inflammatory markers were measured by Luminex Mouse Magnetic Assay (5-PLEX, LXSAMSM-05 by R&D Systems) on Luminex 200. At day 35 post drug initiation the mice were anesthetized with isoflurane and blood samples were collected from abdominal vein.

[4] = tested on: patients with chronic kidney disease and normal healthy human volunteers; settings: patients with chronic kidney disease and normal healthy human volunteers (Shinfuku et al. 2018); cited from earlier work
[5] = tested on: HIF prolyl hydroxylase (PHD) 1/2/3; settings: cited from earlier work

O=C(O)CNC(=O)C1=C(O)CCN(Cc2ccc(Oc3ccc(Cl)cc3)nc2)C1=O [BGE-117, N-[(1{[6-(4-chlorophenoxy)-3-pyridinyl]methyl}-4-hydroxy-2-oxo-1,2,5,6-tetrahydro-3-pyridinyl)carbonyl]glycine]
Activity levels and sleep quality compared to baseline [1]: Improve activity levels and sleep quality | Fatigue (FACIT-Fatigue Score) compared to baseline [1]: Reduce fatigue | Hemoglobin levels compared to baseline [1]: Increase hemoglobin levels | Oxygen delivery, mobility, QOL, and energy levels [1]: Improve oxygen delivery, mobility, QOL, and energy levels | Physical activity (SPPB scores, 6MWT, grip strength test) compared to baseline [1]: Improve physical activity | Hemoglobin levels (5/6 nephrectomized rats): increase hemoglobin levels | Hemoglobin concentration vs vehicle control (FIG. 4B) (aged C57BL/6 mice; 23-month old mice): significant increase of hemoglobin levels | Hemoglobin concentration vs vehicle control (FIG. 4B) (aged C57BL/6 mice; 27-month old mice): significant increase of hemoglobin levels | Hemoglobin levels in aged mice, Mean (aged C57BL/6 mice; Week 0 (before treatment), BGE-117 group): 10.98 g/dL | Hemoglobin levels in aged mice, Mean (aged C57BL/6 mice; Week 2, 0.3 mg/dose PO once daily): 19 g/dL | Voluntary running wheel activity (median daily wheel rotations) vs age-matched controls [2]: statistically significant (p<0.001) increase in voluntary activity; also recorded: significantly increased activity | Hb levels of Test Groups vs Control Groups administered vehicle alone ([3]; 23-month old and 27-month old Test Groups): significantly increased Hb levels | Hemoglobin levels before vs after treatment (FIG. 9B) ([3]; 23-month-old mice with elevated TNFα, after two weeks): significant increases in hemoglobin levels | Hemoglobin levels before vs after treatment (FIG. 10B) ([3]; 23 month old mice with elevated IL-6, after two weeks): Highly significant improvements in hemoglobin levels | Hemoglobin levels before vs after treatment (FIG. 12B) ([3]; 27-month old mice with elevated IL-6, after two weeks): Significant improvements in hemoglobin levels | Hemoglobin levels before vs after treatment (FIG. 11B) ([3]; 27-month-old mice with elevated TNFα, after two weeks): Significant improvements in hemoglobin levels | EPO production [4]: increase EPO production | HIF prolyl hydroxylase inhibition, type [5]: competitive HIF prolyl hydroxylase (PHD) 1/2/3 pan-inhibitor
